Calls of active or inactive are those of the source. How the calls were made is not given here.

This assay concerns the target 3C-like protease (3CLpro), SARS coronavirus (filed as Infectious bronchitis virus). The assay is described as follows: PubChem AID 602486. The conditions noted are these: recombinant 3CLpro, fluorogenic peptide cleavage.

`CC(=O)Nc1ccc(N(C(=O)Cn2cc(-c3ccccc3)nn2)C(C(=O)NC(C)(C)C)c2ccsc2)cc1` (stereo unspecified): the IC50 entry was “inactive”.
